The text below walks through data of patent publication US8389011B2, “Pharmaceutical compositions of cholesteryl ester transfer protein inhibitors” (Bend Research, Inc., priority 2000, dated 2013).

Structures are written as SMILES. In brackets after ≈: the same amount, converted by molar mass. Where two headings read alike, the source gives them in different places.

The nature of one data set: Solubility in water. Format: physicochemical. The text has this:
The invention is useful for CETP inhibitors which have sufficiently low aqueous solubility, low bioavailability or slow rate of absorption such that it is desirable to increase their concentration in an aqueous environment of use. Therefore, anytime one finds it desirable to raise the aqueous concentration of the CETP inhibitor in a use environment, the invention will find utility.

A short description of data set [1]: In vitro dissolution test, microcentrifuge method, in model fasted duodenal solution (MFDS). The class given is physicochemical. The method, then: The compositions comprising the CETP inhibitor and concentration-enhancing polymer provide enhanced concentration of the dissolved CETP inhibitor in in vitro dissolution tests. It has been determined that enhanced drug concentration in in vitro dissolution tests in Model Fasted Duodenal (MFD) solution or Phosphate Buffered Saline (PBS) is a good indicator of in vivo performance and bioavailability. An appropriate PBS solution is an aqueous solution comprising 20 mM sodium phosphate (Na2HPO4), 47 mM potassium phosphate (KH2PO4), 87 mM NaCl, and 0.2 mM KCl, adjusted to pH 6.5 with NaOH. An appropriate MFD solution is the same PBS solution wherein additionally is present 7.3 mM sodium taurocholic acid and 1.4 mM of 1-palmitoyl-2-oleyl-sn-glycero-3-phosphocholine. In particular, a composition of the present invention can be dissolution-tested by adding it to MFD or PBS solution and agitating to promote dissolution.
A typical in vitro test to evaluate enhanced drug concentration in aqueous solution can be conducted by (1) adding with agitation a sufficient quantity of control composition, typically the CETP inhibitor alone, to the in vitro test medium, typically MFD or PBS solution, to achieve equilibrium concentration of the CETP inhibitor; (2) adding with agitation a sufficient quantity of test composition (e.g., the CETP inhibitor and polymer) in an equivalent test medium, such that if all the CETP inhibitor dissolved, the theoretical concentration of CETP inhibitor would exceed the equilibrium concentration of the CETP inhibitor by a factor of at least 10, and preferably a factor of at least 100; and (3) comparing the measured MDC and/or aqueous concentration versus time AUC of the test composition in the test medium with the equilibrium concentration, and/or the aqueous concentration versus time AUC of the control composition. In conducting such a dissolution test, the amount of test composition or control composition used is an amount such that if all of the CETP inhibitor dissolved the CETP inhibitor concentration would be at least 10-fold and preferably at least 100-fold that of the equilibrium concentration. Indeed, for some extremely insoluble CETP inhibitors, in order to identify the MDC achieved it may be necessary to use an amount of test composition such that if all of the CETP inhibitor dissolved, the CETP inhibitor concentration would be 10,000-fold or even more, that of the equilibrium concentration of the CETP inhibitor.
The concentration of dissolved CETP inhibitor is typically measured as a function of time by sampling the test medium and plotting CETP inhibitor concentration in the test medium vs. time so that the MDC can be ascertained. The MDC is taken to be the maximum value of dissolved CETP inhibitor measured over the duration of the test.
To avoid large CETP inhibitor particulates which would give an erroneous determination, the test solution is either filtered or centrifuged. “Dissolved CETP inhibitor” is typically taken as that material that either passes a 0.45 μm syringe filter or, alternatively, the material that remains in the supernatant following centrifugation. Filtration can be conducted using a 13 mm, 0.45 μm polyvinylidine difluoride syringe filter sold by Scientific Resources under the trademark TITAN®. Centrifugation is typically carried out in a polypropylene microcentrifuge tube by centrifuging at 13,000 G for 60 seconds. Other similar filtration or centrifugation methods can be employed and useful results obtained. For example, using other types of microfilters may yield values somewhat higher or lower (±10-40%) than that obtained with the filter specified above but will still allow identification of preferred dispersions. […]

Where [2] appears, read: aqueous solubility determined at about 22° C. unless otherwise specified, read-out: solubility in water.
Where [3] appears, read: Table 9, Drug 2, receptor solution MFDS, TCmax 400 μg/mL (Examples 14-16: 100 μg/mL).

The term solubility denotes the concentration that dissolves in the medium under given conditions. With `CCOC(=O)N1c2cc(CC)c(CC)cc2[C@@H](N(Cc2cc(C(F)(F)F)cc(C(F)(F)F)c2)C(=O)OC)C[C@H]1C` [Drug 5, [2R,4S]4-[(3,5-bis-trifluoromethyl-benzyl)-methoxycarbonyl-amino]-6,7-diethyl-2-methyl-3,4-dihydro-2H-quinoline-1-carboxylic acid ethyl ester], the solubility in “Solubility in water” (setting [2]) is < 1 µg/mL.
Take `COC(=O)N(Cc1cc(C(F)(F)F)cc(C(F)(F)F)c1)[C@@H]1C[C@H](C2CC2)N(C(=O)OC(C)C)c2ccc(C(F)(F)F)cc21` [Control 1, [2R,4R]4-[(3,5-bis-trifluoromethyl-benzyl)-methoxycarbonyl-amino]-2-cyclopropyl-6-trifluoromethyl-3,4-dihydro-2H-quinoline-1-carboxylic acid isopropyl ester]: the Concentration is 0 ng/mL in data set [1] (Table 2, Drug 1, MFDS, 37° C., 0 min, TCmax 100 μg/mL (Example 4: 500 μg/mL)); <100 ng/mL in data set [1] (Table 2, Drug 1, MFDS, 37° C., 4 min, TCmax 100 μg/mL); 300 ng/mL in data set [1] (Table 2, Drug 1, MFDS, 37° C., 10 min, TCmax 100 μg/mL (Example 4: 500 μg/mL)); 300 ng/mL in data set [1] (Table 2, Drug 1, MFDS, 37° C., 20 min, TCmax 100 μg/mL); 900 ng/mL in data set [1] (Table 2, Drug 1, MFDS, 37° C., 40 min, TCmax 100 μg/mL); 800 ng/mL in data set [1] (Table 2, Drug 1, MFDS, 37° C., 90 min, TCmax 100 μg/mL (Example 4: 500 μg/mL)). In addition, the AUC is 0 min-μg/mL in data set [1] (Table 2, Drug 1, MFDS, 37° C., to 0 min, TCmax 100 μg/mL (Example 4: 500 μg/mL)); <0.1 min-μg/mL in data set [1] (Table 2, Drug 1, MFDS, 37° C., to 4 min, TCmax 100 μg/mL); 1 min-μg/mL in data set [1] (Table 2, Drug 1, MFDS, 37° C., to 10 min, TCmax 100 μg/mL (Example 4: 500 μg/mL)); 4 min-μg/mL in data set [1] (Table 2, Drug 1, MFDS, 37° C., to 20 min, TCmax 100 μg/mL); 16 min-μg/mL in data set [1] (Table 2, Drug 1, MFDS, 37° C., to 40 min, TCmax 100 μg/mL); 57 min-μg/mL in data set [1] (Table 2, Drug 1, MFDS, 37° C., to 90 min, TCmax 100 μg/mL (Example 4: 500 μg/mL)). For the same molecule, the AUC90 in data set [1] (Table 3, area under the aqueous concentration versus time curve during the 90-minute test, Drug 1, MFDS, TCmax 100 μg/mL (Example 4: 500 μg/mL)) came to 57 min-μg/mL. Moreover, the “Cmax, 90” value in data set [1] (Table 3, maximum concentration of Drug 1 in solution during the 90-minute test, MFDS, TCmax 100 μg/mL (Example 4: 500 μg/mL)) turned out to be 900 ng/mL.
For the molecule `CCOC(=O)N1c2ccc(C(F)(F)F)cc2[C@@H](N(Cc2cc(C(F)(F)F)cc(C(F)(F)F)c2)C(=O)OC)C[C@H]1CC` [Drug 2, [2R,4S]4-[(3,5-bis-trifluoromethyl-benzyl)-methoxycarbonyl-amino]-2-ethyl-6-trifluoromethyl-3,4-dihydro-2H-quinoline-1-carboxylic acid ethyl ester], the solubility was ~0.01 µg/mL (≈ 0.0167 µM) in “Solubility in water” (22 °C, crystalline drug, read-out: solubility of crystalline Drug 2 (accurate measurements)) and < 1 µg/mL in “Solubility in water” (setting [2]).
Take `CC[C@@H]1C[C@H](N(Cc2cc(C(F)(F)F)cc(C(F)(F)F)c2)C(C)=O)c2cc(C(F)(F)F)ccc2N1C(=O)OC(C)C` [Drug 7, [2R,4S]4-[acetyl-(3,5-bis-trifluoromethyl-benzyl)-amino]-2-ethyl-6-trifluoromethyl-3,4-dihydro-2H-quinoline-1-carboxylic acid isopropyl ester]: the solubility in “Solubility in water” (setting [2]) is < 1 µg/mL.
For `CC(C)c1cc2c(c(-c3ccc(F)cc3)c1[C@@H](F)c1ccc(C(F)(F)F)cc1)[C@@H](O)CC1(CCC1)C2` [Drug 10, (4′S)-5′-(4-fluorophenyl)-6′-[(S)-fluoro[4-(trifluoromethyl)phenyl]methyl]-3′,4′-dihydro-7′-(1-methylethyl)-spiro[cyclobutane-1,2′(1′H)-naphthalen]-4′-ol], in “Solubility in water” (setting [2]), the solubility was < 1 µg/mL.
The same measure, in the same setting: in the case of `CCOC(=O)N1c2cc(OC)c(OC)cc2[C@@H](N(Cc2cc(C(F)(F)F)cc(C(F)(F)F)c2)C(=O)OC)C[C@H]1C` [Drug 4, [2R,4S]4-[(3,5-bis-trifluoromethyl-benzyl)-methoxycarbonyl-amino]-6,7-dimethoxy-2-methyl-3,4-dihydro-2H-quinoline-1-carboxylic acid ethyl ester] it was < 1 µg/mL; in that of `CC[C@@H]1C[C@H](N(Cc2cc(C(F)(F)F)cc(C(F)(F)F)c2)C(=O)OC)c2cc(C(F)(F)F)ccc2N1C(=O)OC(C)C` [Drug 12, [2R,4S]4-[(3,5-bis-trifluoromethyl-benzyl)-methoxycarbonyl-amino]-2-ethyl-6-trifluoromethyl-3,4-dihydro-2H-quinoline-1-carboxylic acid isopropyl ester], < 1 µg/mL.
Consider `CCOC(=O)N1c2ccc(C(F)(F)F)cc2[C@@H](N(Cc2cc(C(F)(F)F)cc(C(F)(F)F)c2)C(=O)OC)C[C@H]1CC` [Control 3, [2R,4S]4-[(3,5-bis-trifluoromethyl-benzyl)-methoxycarbonyl-amino]-2-ethyl-6-trifluoromethyl-3,4-dihydro-2H-quinoline-1-carboxylic acid ethyl ester], for which the Concentration in data set [1] (Table 8, Drug 2, receptor MFDS, 0 min, TCmax 400 μg/ml (Examples 14-16: 100 μg/ml)) is 0 ng/mL; in data set [1] (Table 8, Drug 2, receptor MFDS, 4 min, TCmax 400 μg/ml), <1000 ng/mL; in data set [1] (Table 8, Drug 2, receptor MFDS, 10 min, TCmax 400 μg/ml (Examples 14-16: 100 μg/ml)), <1000 ng/mL; in data set [1] (Table 8, Drug 2, receptor MFDS, 20 min, TCmax 400 μg/ml (Examples 14-16: 100 μg/ml)), <1000 ng/mL; in data set [1] (Table 8, Drug 2, receptor MFDS, 40 min, TCmax 400 μg/ml (Examples 14-16: 100 μg/ml)), <1000 ng/mL; in data set [1] (Table 8, Drug 2, receptor MFDS, 90 min, TCmax 400 μg/ml (Examples 14-16: 100 μg/ml)) it was <1000 ng/mL. For the same molecule, the AUC in data set [1] (Table 8, Drug 2, receptor MFDS, to 0 min, TCmax 400 μg/ml (Examples 14-16: 100 μg/ml)) is on record as 0 min-μg/ml; in data set [1] (Table 8, Drug 2, receptor MFDS, to 4 min, TCmax 400 μg/ml), <4 min-μg/ml; in data set [1] (Table 8, Drug 2, receptor MFDS, to 10 min, TCmax 400 μg/ml (Examples 14-16: 100 μg/ml)) it was <10 min-μg/ml; in data set [1] (Table 8, Drug 2, receptor MFDS, to 20 min, TCmax 400 μg/ml (Examples 14-16: 100 μg/ml)), <20 min-μg/ml; in data set [1] (Table 8, Drug 2, receptor MFDS, to 40 min, TCmax 400 μg/ml (Examples 14-16: 100 μg/ml)), <40 min-μg/ml; in data set [1] (Table 8, Drug 2, receptor MFDS, to 90 min, TCmax 400 μg/ml (Examples 14-16: 100 μg/ml)), <90 min-μg/ml. Further, the AUC90 in data set [1] (setting [3]) is <90 min-μg/mL; in data set [1] (Table 22: Drug 2, MFD solution), <90 min-μg/mL. In addition, the “Cmax, 90” value in data set [1] (setting [3]) is <1000 ng/mL; in data set [1] (Table 22: Drug 2, MFD solution), <1000 ng/mL.
With `COC(=O)N(Cc1cc(C(F)(F)F)cc(C(F)(F)F)c1)[C@@H]1C[C@H](C2CC2)N(C(=O)OC(C)C)c2ccc(C(F)(F)F)cc21` [Drug 1, [2R,4R]4-[(3,5-bis-trifluoromethyl-benzyl)-methoxycarbonyl-amino]-2-cyclopropyl-6-trifluoromethyl-3,4-dihydro-2H-quinoline-1-carboxylic acid isopropyl ester], in “Solubility in water” (setting [2]), the solubility is < 1 µg/mL.
